Source: ChEMBL document CHEMBL2434905, “2-Amino-6-chloro-3,4-dihydroquinazoline: A novel 5-HT3 receptor antagonist with antidepressant character” (Bioorg Med Chem Lett, 2013)
The source made the active and inactive calls. The rule behind the calls is not given here.

Tested on: Mus musculus
Assay: Antidepressant activity in ICR mouse assessed as immobility time at 20 mg/kg, ip by tail suspension test
Type: functional, organism-based
Parameters: dose 20 mg/kg

`CNCCC(Oc1ccc(C(F)(F)F)cc1)c1ccccc1` (stereo unspecified) was tested, and the Activity was “Active”.
